One block for each compound: values may come before it. The source made the active and inactive calls. The calls are words filed in the database; no cut-off is given here.
Columns and labels:
[1] = Solubility of the compound in […] ethanol/[…] Tween-80 at 1 mg; format: physicochemical
[2] = test system: SK-OV-3; experiment: Antiproliferative activity against human SKOV3 cells after 24 hrs by MTT assay; format: functional, cell-based; details: SK-OV-3, 24 h
[3] = test system: HCT-116; experiment: Antiproliferative activity against human HCT116 cells after 24 hrs by MTT assay; format: functional, cell-based; details: HCT-116, 24 h
[4] = Toxicity in mouse xenografted with human H460 cells assessed as body weight loss at 2.5 to 5 mg/kg, iv qd administered every 2 days measured daily during compound dosing; format: organism-based; details: in vivo, 48 h
[5] = Toxicity in mouse xenografted with human H460 cells assessed as mortality at 2.5 to 5 mg/kg, iv qd administered every 2 days measured daily during compound dosing; format: organism-based; details: in vivo, 48 h
[6] = target: T1, Tubulin (Sus scrofa) (UniProt P02554+P02550); experiment: Inhibition of porcine brain tubulin polymerization at 10 uM preincubated for 5 mins followed by GTP addition measured every 2 mins by spectrophotometry
T1 sequence (P02550 whole entry, looked up): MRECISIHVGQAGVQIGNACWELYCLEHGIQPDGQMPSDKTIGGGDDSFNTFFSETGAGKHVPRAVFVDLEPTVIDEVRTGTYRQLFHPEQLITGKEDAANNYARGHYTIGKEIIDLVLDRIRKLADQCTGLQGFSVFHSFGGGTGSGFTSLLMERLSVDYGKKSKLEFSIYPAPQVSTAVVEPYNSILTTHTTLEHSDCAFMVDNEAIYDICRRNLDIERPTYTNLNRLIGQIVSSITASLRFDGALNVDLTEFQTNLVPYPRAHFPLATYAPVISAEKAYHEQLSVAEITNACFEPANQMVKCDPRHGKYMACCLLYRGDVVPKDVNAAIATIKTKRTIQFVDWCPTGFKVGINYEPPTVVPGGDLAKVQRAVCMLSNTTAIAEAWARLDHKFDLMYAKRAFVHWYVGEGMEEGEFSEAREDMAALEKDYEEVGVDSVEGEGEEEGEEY
T1 sequence (P02554 whole entry, looked up): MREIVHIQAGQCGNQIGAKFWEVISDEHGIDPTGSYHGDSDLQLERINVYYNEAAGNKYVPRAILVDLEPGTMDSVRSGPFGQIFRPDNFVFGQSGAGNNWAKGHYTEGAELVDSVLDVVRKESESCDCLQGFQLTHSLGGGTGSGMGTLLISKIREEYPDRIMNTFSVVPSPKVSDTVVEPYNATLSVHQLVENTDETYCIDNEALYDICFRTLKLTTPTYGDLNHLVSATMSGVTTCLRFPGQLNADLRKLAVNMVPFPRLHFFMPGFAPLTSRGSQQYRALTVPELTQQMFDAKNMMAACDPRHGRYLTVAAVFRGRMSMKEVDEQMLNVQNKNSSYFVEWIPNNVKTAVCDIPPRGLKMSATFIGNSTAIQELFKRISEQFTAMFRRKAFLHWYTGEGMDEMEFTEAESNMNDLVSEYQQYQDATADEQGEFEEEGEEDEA

[7] = Toxicity in mouse allografted with mouse C26 cells assessed as body weight loss at 2.5 to 5 mg/kg, iv qd administered every 2 days measured daily during compound dosing; format: organism-based; details: in vivo, 48 h
[8] = Toxicity in mouse allografted with mouse C26 cells assessed as mortality at 2.5 to 5 mg/kg, iv qd administered every 2 days measured daily during compound dosing; format: organism-based; details: in vivo, 48 h
[9] = test system: HepG2; experiment: cells; details: Homo sapiens, HepG2, 24 h
Description: Antiproliferative activity against human HepG2 cells after 24 hrs by MTT assay

[10] = target: T2, Tubulin (Homo sapiens) (UniProt P68371+Q9H4B7+P0DPH7+P68366+Q13509+Q71U36+P04350+Q3ZCM7+P07437+P68363+Q9BQE3+Q6PEY2+Q13885+Q9BVA1+Q9BUF5); experiment: Binding affinity to tubulin in human HepG2 cells assessed as inhibition of microtubule network formation in cytosol at 100 nM after 16 to 24 hrs by DAPI staining-based immunofluorescence microscopy; format: cell-based
[11] = target: T2, Tubulin (Homo sapiens); experiment: Binding affinity to tubulin in human HepG2 cells assessed as induction of abnormal chromosomal aggregation at 100 nM after 16 to 24 hrs by DAPI staining-based immunofluorescence microscopy; format: cell-based
[12] = test system: A2780/Taxol; experiment: Cytotoxicity against beta-tubulin 3 overexpressing human A2780T cells assessed as reduction in cell growth after 24 hrs by MTT assay; format: functional, cell-based
[13] = test system: HCT-8; experiment: Cytotoxicity against vinblastine resistant/P-gp overexpressing human HCT8 cells assessed as reduction in cell growth after 24 hrs by MTT assay; format: functional, cell-based; details: HCT-8, 24 h
[14] = target: T2, Tubulin (Homo sapiens); experiment: Inhibition of microtubule polymerization in human HepG2 cells after 24 hrs by immunofluorescence staining-based confocal microscopy; format: cell-based
[15] = target: T2, Tubulin (Homo sapiens); experiment: Binding affinity to microtubule in human HepG2 cells assessed as inhibition of spindle formation after 24 hrs by immunofluorescence staining-based confocal microscopy; format: cell-based
[16] = target: T1, Tubulin (Sus scrofa); experiment: Inhibition of porcine brain tubulin polymerization preincubated for 5 mins followed by GTP addition measured every 2 mins by spectrophotometry
[17] = target: Tubulin beta (Homo sapiens) (UniProt P68371+Q9H4B7+Q13509+P04350+Q3ZCM7+P07437+Q13885+Q9BVA1+Q9BUF5+A6NNZ2); experiment: Competitive binding affinity to beta-tubulin in human HepG2 cells assessed as disappearance of EBI-protein adducts preincubated for 2 hrs followed by EBI addition measured after […] by Western blot analysis; format: cell-based
[18] = test system: NCI/ADR-RES; experiment: Cytotoxicity against P-gp overexpressing human MCF7/ADR cells assessed as reduction in cell growth after 24 hrs by MTT assay; format: functional, cell-based
[19] = target: T2, Tubulin (Homo sapiens); experiment: Binding affinity to microtubule in human HepG2 cells assessed as bundling of microtubule fibers near nucleus at 300 nM after 24 hrs by immunofluorescence staining-based confocal microscopy; format: cell-based
[20] = test system: A2780/Taxol; experiment: Antitumor activity against beta-tubulin 3 overexpressing human A2780T cells xenografted in mouse assessed as tumor growth inhibition at 30 mg/kg, iv qd administered once a week; format: functional; details: read-out: TGI
[21] = test system: MCF7; experiment: Antitumor activity against human MCF7 cells xenografted in mouse assessed as tumor growth inhibition at 5 mg/kg, iv qd administered every 2 days measured during compound dosing; format: functional; details: 48 h, read-out: TGI
[22] = Toxicity in mouse xenografted with beta-tubulin 3 overexpressing human A2780T cells assessed as body weight loss at 30 mg/kg, iv qd administered once a week; format: organism-based; details: in vivo
[23] = Toxicity in mouse xenografted with beta-tubulin 3 overexpressing human A2780T cells assessed as abnormal behavior at 30 mg/kg, iv qd administered once a week; format: organism-based; details: in vivo
[24] = Toxicity in mouse xenografted with human MCF7 cells assessed as body weight loss at 5 mg/kg, iv qd administered every 2 days measured during compound dosing; format: organism-based; details: in vivo, 48 h
[25] = Toxicity in mouse xenografted with human MCF7 cells assessed as body weight loss at 24 mg/kg, iv qd administered once a week; format: organism-based; details: in vivo

solubility [1]: Insoluble
Compound: CCCCCC(=O)Oc1cc(N(C)c2cc(=O)oc3ccccc23)ccc1OC

Compound: COc1ccc(N(C)c2nc(C)nc3ccccc23)cc1 [VERUBULIN]
IC50 [2]: 3.2 nM
IC50 [3]: 4.3 nM
Activity [4]: Toxic
Activity [5]: Toxic
inhibition [6]: Active
Activity [7]: Toxic
Activity [8]: Toxic
IC50 [9]: 4.6 nM

solubility [1]: Insoluble
Compound: CCCCCC(=O)Nc1cc(N(C)c2cc(=O)oc3ccccc23)ccc1OC

solubility [1]: Insoluble
Compound: COc1ccc(N(C)c2cc(=O)oc3ccccc23)cc1OC(=O)CBr

solubility [1]: Insoluble
Compound: C=CC(=O)Oc1cc(N(C)c2cc(=O)oc3ccccc23)ccc1OC

solubility [1]: Insoluble
Compound: CCOC(=O)CCC(=O)Nc1cc(N(C)c2cc(=O)oc3ccccc23)ccc1OC

solubility [1]: Insoluble
Compound: C/C=C/C(=O)Nc1cc(N(C)c2cc(=O)oc3ccccc23)ccc1OC

solubility [1]: Soluble
inhibition of microtubule network formation (active/inactive) [10]: Active
Activity [11]: Active
Compound: CC/C=C(\C)C(=O)Oc1cc(N(C)c2cc(=O)oc3ccccc23)ccc1OC

Compound: COc1cc2c(c(OC)c1OC)-c1ccc(OC)c(=O)cc1[C@@H](NC(C)=O)CC2 [COLCHICINE]
IC50 [2]: 51.9 nM
IC50 [12]: 8670 nM
IC50 [13]: 2430 nM
IC50 [9]: 42.8 nM

solubility [1]: Insoluble
Compound: CCC/C=C/C(=O)Oc1cc(N(C)c2cc(=O)oc3ccccc23)ccc1OC

solubility [1]: Soluble
inhibition of microtubule network formation (active/inactive) [10]: Active
Activity [11]: Active
inhibition [14]: Dose-dependent effect
inhibition [15]: Dose-dependent effect
inhibition [16]: Dose-dependent effect
Activity [17]: Dose-dependent effect
Compound: COc1ccc(N(C)c2cc(=O)oc3ccccc23)cc1NC(=O)CCCCCl

solubility [1]: Insoluble
Compound: CCC(=O)Oc1cc(N(C)c2cc(=O)oc3ccccc23)ccc1OC

solubility [1]: Insoluble
Compound: COc1ccc(N(C)c2cc(=O)oc3ccccc23)cc1OC(C)=O

Activity [19]: Active
Compound: CC(=O)O[C@H]1C(=O)[C@@]2(C)[C@H]([C@H](OC(=O)c3ccccc3)[C@]3(O)C[C@H](OC(=O)[C@H](O)[C@@H](NC(=O)c4ccccc4)c4ccccc4)C(C)=C1C3(C)C)[C@]1(OC(C)=O)CO[C@@H]1C[C@@H]2O [PACLITAXEL]
IC50 [12]: 56600 nM
IC50 [13]: 189 nM
IC50 [18]: 9150 nM
inhibition in vivo at 30 mg/kg [20]: 37.7%
inhibition in vivo at 5 mg/kg [21]: 59.2%
Activity [22]: Toxic
Activity [23]: Toxic
Activity [24]: Toxic
Activity [25]: Toxic

solubility [1]: Insoluble
Compound: COc1ccc(N(C)c2cc(=O)oc3ccccc23)cc1OC(=O)C=C(C)C

solubility [1]: Soluble
inhibition of microtubule network formation (active/inactive) [10]: Active
Activity [11]: Active
Compound: C=CCCC(=O)Nc1cc(N(C)c2cc(=O)oc3ccccc23)ccc1OC

IC50 [2]: > 5000 nM
IC50 [3]: > 5000 nM
IC50 [9]: > 5000 nM
Compound: COc1ccc(-c2ccc(-c3cc(=O)oc4cc(OC)ccc34)s2)cc1

solubility [1]: Insoluble
Compound: COc1ccc2c(N(C)c3ccc(OC)c(O)c3)cc(=O)oc2c1

solubility [1]: Insoluble
Compound: COc1ccc(N(C)c2cc(=O)oc3ccccc23)cc1OC(=O)C(C)(C)C

Source: ChEMBL document CHEMBL4425100, “Design, Synthesis, and Evaluation of in Vitro and in Vivo Anticancer Activity of 4-Substituted Coumarins: A Novel Class of Potent Tubulin Polymerization Inhibitors” (J Med Chem, 2016)
